ChEMBL document CHEMBL1201862, “PubChem BioAssay data set” (2004)
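1) Cells in 96-well plates. 2) Compound, 48 h, 5 concentrations. 3) Linear interpolation between surrounding doses. 4) Unreached endpoint = highest concentration. Abbreviation: GI50, concentration required for 50% inhibition of growth.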 Activity calls are given as the source filed them. Cut-off read from the data, not from the text of the source: active = GI50 up to about 1.1 µM and inactive = higher.

Key:
Assay in all cases: inhibition of tumour cell growth, NCI panel, 48 h
OVCAR-3 = test system: OVCAR-3
Hs-578T = test system: Hs-578T
TK-10 = test system: TK-10
SN12C = test system: SN12C
SF-295 = test system: SF-295
SK-MEL-28 = test system: SK-MEL-28
HOP-92 = test system: HOP-92
K562 = test system: K562
NCI-H23 = test system: NCI-H23
CCRF-CEM = test system: CCRF-CEM
NCI-H460 = test system: NCI-H460
SK-MEL-2 = test system: SK-MEL-2
SF-268 = test system: SF-268
MCF7 = test system: MCF7
RXF 393 = test system: RXF 393
HCT-15 = test system: HCT-15
HT-29 = test system: HT-29
SNB-75 = test system: SNB-75
SF-539 = test system: SF-539
A498 = test system: A498

Row | SMILES | GI50 (OVCAR-3) | GI50 (Hs-578T) | GI50 (TK-10) | GI50 (SN12C) | GI50 (SF-295) | GI50 (SK-MEL-28) | GI50 (HOP-92) | GI50 (K562) | GI50 (NCI-H23) | GI50 (CCRF-CEM) | GI50 (NCI-H460) | GI50 (SK-MEL-2) | GI50 (SF-268) | GI50 (MCF7) | GI50 (RXF 393) | GI50 (HCT-15) | GI50 (HT-29) | GI50 (SNB-75) | GI50 (SF-539) | GI50 (A498)
1 | CCOC(=O)c1c(-c2ccc(Cl)cc2)c(C#N)c(=S)n(C2OC(COC(C)=O)C(OC(C)=O)C(OC(C)=O)C2OC(C)=O)c1-c1ccccc1 (stereo unspecified) | > 100 µM (inactive) | > 100 µM (inactive) | > 100 µM (inactive) | > 100 µM (inactive) | > 100 µM (inactive) | > 100 µM (inactive) | 12.7 µM (inactive) | > 100 µM (inactive) | > 100 µM (inactive) | > 100 µM (inactive) | > 100 µM (inactive) | > 100 µM (inactive) | > 100 µM (inactive) | > 100 µM (inactive) | > 100 µM (inactive) | > 100 µM | > 100 µM (inactive) | 21.6 µM (inactive) | > 100 µM (inactive) | 
2 | CC(C)n1c2c(c3ccccc3c1=O)C(=O)c1ccccc1-2 | > 100 µM (inactive) | > 100 µM (inactive) | > 100 µM (inactive) | > 100 µM (inactive) | > 100 µM (inactive) | > 100 µM (inactive) | > 100 µM (inactive) | > 100 µM (inactive) | > 100 µM (inactive) | > 100 µM (inactive) |  | > 100 µM (inactive) | > 100 µM (inactive) | > 100 µM (inactive) |  | > 100 µM | > 100 µM (inactive) | > 100 µM (inactive) | > 100 µM (inactive) | > 100 µM (inactive)
3 | CC1Oc2c(c(=O)oc3ccccc23)[C@@]1(C)CC1C[C@H](C)C(=O)O1 (stereo partly specified) | 20.9 µM (inactive) | 30.6 µM (inactive) | > 100 µM (inactive) | > 10 µM (inactive) | 63 µM (inactive) | 18.7 µM (inactive) |  | 16.8 µM (inactive) | 19.1 µM (inactive) | 5.96 µM (inactive) | > 10 µM (inactive) | 25.9 µM (inactive) | 18.3 µM (inactive) | 34.4 µM (inactive) |  | 18.3 µM | 27.1 µM (inactive) | 24.7 µM (inactive) | 25.2 µM (inactive) | > 100 µM (inactive)
4 | Clc1ccc(OCc2nn3c(CCc4nnc5sc(COc6ccc(Cl)cc6)nn45)nnc3s2)cc1 | 16 µM (inactive) | 3.94 µM (inactive) | 26.4 µM (inactive) |  | 24.5 µM (inactive) | 33.9 µM (inactive) |  | 9.4 µM (inactive) | 15.3 µM (inactive) | 29.1 µM (inactive) | 18.4 µM (inactive) | 25.7 µM (inactive) | 5.61 µM (inactive) | 21.4 µM (inactive) | 23.8 µM (inactive) | 18.2 µM | 27.8 µM (inactive) |  | 27.9 µM (inactive) | 11.9 µM (inactive)
5 | CC(C)(C)[Si](C)(C)OCCc1ccccc1C1CC2(S(=O)(=O)c3ccccc3)ON1CC2S(=O)(=O)c1ccccc1 (stereo unspecified) | > 100 µM (inactive) | > 100 µM (inactive) | > 100 µM (inactive) | > 100 µM (inactive) | > 100 µM (inactive) | > 100 µM (inactive) |  | > 100 µM (inactive) | > 100 µM (inactive) | > 100 µM (inactive) | > 100 µM (inactive) | > 100 µM (inactive) | > 100 µM (inactive) | 60.5 µM (inactive) | > 100 µM (inactive) |  | > 100 µM (inactive) | > 100 µM (inactive) | > 100 µM (inactive) | > 100 µM (inactive)
6 | C=CCN1C(=O)C=C(c2ccccc2)n2ncc3cccc1c32 | > 100 µM (inactive) | > 100 µM (inactive) | > 100 µM (inactive) | > 100 µM (inactive) | > 100 µM (inactive) | > 100 µM (inactive) | 27.7 µM (inactive) |  | > 100 µM (inactive) | 67.9 µM (inactive) |  | > 100 µM (inactive) | > 100 µM (inactive) | > 100 µM (inactive) |  | > 100 µM | 69.2 µM (inactive) |  | > 100 µM (inactive) | 44.3 µM (inactive)
7 | O=C1Nc2ccccc2/C1=N/Nc1ncccc1[N+](=O)[O-] | 6.25 µM (inactive) | 31.6 µM (inactive) | 14.1 µM (inactive) | 17.3 µM (inactive) | 17.2 µM (inactive) | 22.6 µM (inactive) | 62.2 µM (inactive) | 3.95 µM (inactive) |  |  | 16.7 µM (inactive) | 20.9 µM (inactive) | 11.9 µM (inactive) | 3.19 µM (inactive) |  | 4.72 µM | 6.12 µM (inactive) | 1.39 µM (inactive) | 2.37 µM (inactive) | 71.3 µM (inactive)
8 | COc1ccc2c(c1)CN1C(=N2)CSC1c1cc([N+](=O)[O-])ccc1Cl (stereo unspecified) |  | 47.1 µM (inactive) | > 100 µM (inactive) | 65.6 µM (inactive) | 39.4 µM (inactive) |  | 37.4 µM (inactive) | 10.8 µM (inactive) | 29 µM (inactive) |  | 31.9 µM (inactive) | 31.1 µM (inactive) | 46.6 µM (inactive) | 28.2 µM (inactive) | 26.2 µM (inactive) | 30.6 µM | 24.7 µM (inactive) | 52.1 µM (inactive) | 28.5 µM (inactive) | 
9 | COC(=O)CCNC(=O)OCc1ccccc1 | > 100 µM (inactive) | > 100 µM (inactive) | > 100 µM (inactive) | > 100 µM (inactive) | > 100 µM (inactive) | > 100 µM (inactive) |  | > 100 µM (inactive) | > 100 µM (inactive) | > 100 µM (inactive) | > 100 µM (inactive) | > 100 µM (inactive) | > 100 µM (inactive) | > 100 µM (inactive) |  | > 100 µM | > 100 µM (inactive) | > 100 µM (inactive) | > 100 µM (inactive) | > 100 µM (inactive)
10 | COC(=O)C1=C(C)NC(C)=C(C(=O)OC)C1c1ccc(N=O)cc1 | 13.6 µM (inactive) | 7.31 µM (inactive) | 15.4 µM (inactive) | 19.5 µM (inactive) | 24.4 µM (inactive) | 17.1 µM (inactive) | 2.54 µM (inactive) | 1.07 µM (active) | 16.2 µM (inactive) | 0.897 µM (active) | 18.9 µM (inactive) | 13.7 µM (inactive) | 22.1 µM (inactive) | 17.9 µM (inactive) | 8.22 µM (inactive) | 9.53 µM | 13.6 µM (inactive) | 13.4 µM (inactive) | 17.7 µM (inactive) | 
11 | Nc1ccccc1/C=C\c1ccccc1 | > 100 µM (inactive) | > 100 µM (inactive) | > 100 µM (inactive) | > 100 µM (inactive) | > 100 µM (inactive) | > 100 µM (inactive) | > 100 µM (inactive) | > 100 µM (inactive) | > 100 µM (inactive) | > 100 µM (inactive) | > 100 µM (inactive) |  | > 100 µM (inactive) | > 100 µM (inactive) | > 100 µM (inactive) | > 100 µM | > 100 µM (inactive) | > 100 µM (inactive) | > 100 µM (inactive) | 
12 | [O-][N+](CCO)(CCO)c1ncnc2[nH]cnc12 | > 100 µM (inactive) | > 100 µM (inactive) | > 100 µM (inactive) | > 100 µM (inactive) | > 100 µM (inactive) | > 100 µM (inactive) |  | > 100 µM (inactive) | > 100 µM (inactive) | > 100 µM (inactive) |  | > 100 µM (inactive) | > 100 µM (inactive) | 76.6 µM (inactive) | > 100 µM (inactive) | > 100 µM | > 100 µM (inactive) | > 100 µM (inactive) |  | > 100 µM (inactive)
